Values joined by “and” are separate entries in the source; they are usually repeats but may differ in a detail not shown here. Identical values can stand only once. Inconclusive results and toxic doses are left out. No stated cut-off is given here; in the data, active means T/C of 150% or more; inactive means T/C below 125%.
Tested on: L1210 leukemia ip in BDF1 mice, survival T/C
Assay: NCI In Vivo Anticancer Drug Screen. Data for tumor model L1210 Leukemia (intraperitoneal) in B6D2F1 (BDF1) mice
Conditions: endpoint: mean survival time, higher = longer survival
Summary of the method: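 Transplantable tumor model; survival measured in treated vs vehicle control mice. Value = treated/control.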

Measured: T/C

O=C1NC(c2cccc3ccccc23)Nc2ccccc21 (centres undefined)
inactive: dose: 12.5 mg/kg/injection, schedule: Q01DX009 (oral), vehicle: Klucel (hydroxypropylcellulose) (HPC) 111 % of control | dose: 12.5 mg/kg/injection, schedule: Q01DX009 (oral), vehicle: methylcellulose (MC) 103 % of control and 109 % of control | dose: 16.0 mg/kg/injection, schedule: Q01DX009 (ip), vehicle: Klucel (hydroxypropylcellulose) (HPC) 100 % of control | dose: 16.0 mg/kg/injection, schedule: Q01DX009 (sc), vehicle: Klucel (hydroxypropylcellulose) (HPC) 98 % of control | dose: 16.0 mg/kg/injection, schedule: Q03HX008 (ip), vehicle: Klucel (hydroxypropylcellulose) (HPC) 109 % of control | dose: 16.0 mg/kg/injection, schedule: Q03HX016 (ip), vehicle: Klucel (hydroxypropylcellulose) (HPC) 104 % of control | dose: 16.0 mg/kg/injection, schedule: Q03HX024 (ip), vehicle: Klucel (hydroxypropylcellulose) (HPC) 102 % of control | dose: 32.0 mg/kg/injection, schedule: Q01DX009 (ip), vehicle: Klucel (hydroxypropylcellulose) (HPC) 98 % of control | dose: 32.0 mg/kg/injection, schedule: Q01DX009 (sc), vehicle: Klucel (hydroxypropylcellulose) (HPC) 102 % of control | dose: 40.0 mg/kg/injection, schedule: Q01DX009 (ip), vehicle: methylcellulose (MC) 110 % of control | dose: 40.0 mg/kg/injection, schedule: Q01DX009 (ip), vehicle: other 107 % of control | dose: 40.0 mg/kg/injection, schedule: Q01DX009 (oral), vehicle: Klucel (hydroxypropylcellulose) (HPC) 98 % of control and 100 % of control | dose: 40.0 mg/kg/injection, schedule: Q01DX009 (oral), vehicle: methylcellulose (MC) 110 % of control | dose: 50.0 mg/kg/injection, schedule: Q01DX009 (oral), vehicle: other 106 % of control | dose: 60.0 mg/kg/injection, schedule: Q01DX009 (oral), vehicle: Klucel (hydroxypropylcellulose) (HPC) 100 % of control and 104 % of control | dose: 60.0 mg/kg/injection, schedule: Q01DX009 (oral), vehicle: methylcellulose (MC) 103 % of control | dose: 62.5 mg/kg/injection, schedule: Q01DX005 (oral), vehicle: saline 97 % of control | dose: 62.5 mg/kg/injection, schedule: Q01DX009 (oral), vehicle: saline 97 % of control | dose: 62.5 mg/kg/injection, schedule: Q01DX009 (oral), vehicle: water 104 % of control | dose: 62.5 mg/kg/injection, schedule: Q04DX003 (oral), vehicle: saline 105 % of control | dose: 64.0 mg/kg/injection, schedule: Q01DX009 (ip), vehicle: Klucel (hydroxypropylcellulose) (HPC) 108 % of control | dose: 64.0 mg/kg/injection, schedule: Q01DX009 (sc), vehicle: Klucel (hydroxypropylcellulose) (HPC) 97 % of control | dose: 80.0 mg/kg/injection, schedule: Q01DX009 (ip), vehicle: methylcellulose (MC) 101 % of control | dose: 80.0 mg/kg/injection, schedule: Q01DX009 (oral), vehicle: Klucel (hydroxypropylcellulose) (HPC) 109 % of control | dose: 80.0 mg/kg/injection, schedule: Q01DX009 (oral), vehicle: methylcellulose (MC) 105 % of control and 110 % of control | dose: 100.0 mg/kg/injection, schedule: Q01DX009 (oral), vehicle: Klucel (hydroxypropylcellulose) (HPC) 100 % of control | dose: 100.0 mg/kg/injection, schedule: Q01DX009 (oral), vehicle: saline 104 % of control and 106 % of control | dose: 100.0 mg/kg/injection, schedule: Q04DX003 (ip), vehicle: other 103 % of control | dose: 100.0 mg/kg/injection, schedule: Q04DX003 (oral), vehicle: Klucel (hydroxypropylcellulose) (HPC) 98 % of control and 104 % of control | dose: 100.0 mg/kg/injection, schedule: Q04DX003 (oral), vehicle: methylcellulose (MC) 104 % of control and 107 % of control | dose: 100.0 mg/kg/injection, schedule: Q04DX003 (oral), vehicle: other 105 % of control | dose: 120.0 mg/kg/injection, schedule: Q01DX009 (oral), vehicle: Klucel (hydroxypropylcellulose) (HPC) 104 % of control | dose: 120.0 mg/kg/injection, schedule: Q01DX009 (oral), vehicle: methylcellulose (MC) 98 % of control | dose: 125.0 mg/kg/injection, schedule: Q01DX005 (oral), vehicle: saline 110 % of control | dose: 125.0 mg/kg/injection, schedule: Q01DX009 (oral), vehicle: Klucel (hydroxypropylcellulose) (HPC) 105 % of control | dose: 125.0 mg/kg/injection, schedule: Q01DX009 (oral), vehicle: saline 103 % of control | dose: 125.0 mg/kg/injection, schedule: Q04DX003 (oral), vehicle: saline 102 % of control | dose: 125.0 mg/kg/injection, schedule: Q04DX003 (oral), vehicle: water 106 % of control | dose: 125.0 mg/kg/injection, schedule: Q07DX002 (ip), vehicle: water 103 % of control | dose: 128.0 mg/kg/injection, schedule: Q01DX001 (ip), vehicle: Klucel (hydroxypropylcellulose) (HPC) 103 % of control | dose: 128.0 mg/kg/injection, schedule: Q01DX001 (sc), vehicle: Klucel (hydroxypropylcellulose) (HPC) 100 % of control | dose: 128.0 mg/kg/injection, schedule: Q01DX009 (ip), vehicle: Klucel (hydroxypropylcellulose) (HPC) 94 % of control | dose: 128.0 mg/kg/injection, schedule: Q01DX009 (sc), vehicle: Klucel (hydroxypropylcellulose) (HPC) 103 % of control | dose: 128.0 mg/kg/injection, schedule: Q04DX003 (ip), vehicle: Klucel (hydroxypropylcellulose) (HPC) 99 % of control | dose: 128.0 mg/kg/injection, schedule: Q08DX002 (ip), vehicle: Klucel (hydroxypropylcellulose) (HPC) 97 % of control | dose: 140.0 mg/kg/injection, schedule: Q01DX009 (ip), vehicle: other 104 % of control | dose: 140.0 mg/kg/injection, schedule: Q01DX009 (oral), vehicle: Klucel (hydroxypropylcellulose) (HPC) 104 % of control and 105 % of control | dose: 140.0 mg/kg/injection, schedule: Q01DX009 (oral), vehicle: methylcellulose (MC) 109 % of control and 111 % of control | dose: 150.0 mg/kg/injection, schedule: Q01DX009 (oral), vehicle: Klucel (hydroxypropylcellulose) (HPC) 107 % of control | dose: 150.0 mg/kg/injection, schedule: Q01DX009 (oral), vehicle: other 108 % of control | dose: 150.0 mg/kg/injection, schedule: Q01DX009 (oral), vehicle: saline 108 % of control | dose: 150.0 mg/kg/injection, schedule: Q04DX003 (ip), vehicle: other 98 % of control | dose: 150.0 mg/kg/injection, schedule: Q04DX003 (oral), vehicle: Klucel (hydroxypropylcellulose) (HPC) 107 % of control and 111 % of control | dose: 150.0 mg/kg/injection, schedule: Q04DX003 (oral), vehicle: methylcellulose (MC) 104 % of control and 105 % of control | dose: 175.0 mg/kg/injection, schedule: Q01DX009 (oral), vehicle: methylcellulose (MC) 105 % of control and 108 % of control | dose: 200.0 mg/kg/injection, schedule: Q04DX003 (ip), vehicle: other 96 % of control | dose: 200.0 mg/kg/injection, schedule: Q04DX003 (oral), vehicle: Klucel (hydroxypropylcellulose) (HPC) 95 % of control and 104 % of control | dose: 200.0 mg/kg/injection, schedule: Q04DX003 (oral), vehicle: methylcellulose (MC) 98 % of control and 104 % of control | dose: 200.0 mg/kg/injection, schedule: Q04DX003 (oral), vehicle: other 108 % of control | dose: 225.0 mg/kg/injection, schedule: Q01DX009 (oral), vehicle: methylcellulose (MC) 110 % of control | dose: 250.0 mg/kg/injection, schedule: Q01DX005 (oral), vehicle: saline 107 % of control | dose: 250.0 mg/kg/injection, schedule: Q01DX009 (oral), vehicle: saline 103 % of control | dose: 250.0 mg/kg/injection, schedule: Q04DX003 (ip), vehicle: Klucel (hydroxypropylcellulose) (HPC) 103 % of control | dose: 250.0 mg/kg/injection, schedule: Q04DX003 (oral), vehicle: Klucel (hydroxypropylcellulose) (HPC) 108 % of control | dose: 250.0 mg/kg/injection, schedule: Q04DX003 (oral), vehicle: methylcellulose (MC) 103 % of control and 104 % of control | dose: 250.0 mg/kg/injection, schedule: Q04DX003 (oral), vehicle: saline 105 % of control | dose: 250.0 mg/kg/injection, schedule: Q04DX003 (oral), vehicle: water 104 % of control | dose: 250.0 mg/kg/injection, schedule: Q07DX002 (ip), vehicle: water 97 % of control | dose: 256.0 mg/kg/injection, schedule: Q01DX001 (ip), vehicle: Klucel (hydroxypropylcellulose) (HPC) 103 % of control | dose: 256.0 mg/kg/injection, schedule: Q01DX001 (sc), vehicle: Klucel (hydroxypropylcellulose) (HPC) 101 % of control | dose: 256.0 mg/kg/injection, schedule: Q01DX009 (sc), vehicle: Klucel (hydroxypropylcellulose) (HPC) 94 % of control | dose: 256.0 mg/kg/injection, schedule: Q04DX003 (ip), vehicle: Klucel (hydroxypropylcellulose) (HPC) 111 % of control | dose: 256.0 mg/kg/injection, schedule: Q08DX002 (ip), vehicle: Klucel (hydroxypropylcellulose) (HPC) 111 % of control | dose: 300.0 mg/kg/injection, schedule: Q04DX003 (ip), vehicle: Klucel (hydroxypropylcellulose) (HPC) 94 % of control | dose: 300.0 mg/kg/injection, schedule: Q04DX003 (oral), vehicle: Klucel (hydroxypropylcellulose) (HPC) 109 % of control and 111 % of control | dose: 300.0 mg/kg/injection, schedule: Q04DX003 (oral), vehicle: methylcellulose (MC) 108 % of control | dose: 500.0 mg/kg/injection, schedule: Q01DX005 (oral), vehicle: saline 107 % of control | dose: 500.0 mg/kg/injection, schedule: Q01DX009 (oral), vehicle: saline 110 % of control | dose: 500.0 mg/kg/injection, schedule: Q04DX003 (oral), vehicle: saline 108 % of control | dose: 500.0 mg/kg/injection, schedule: Q04DX003 (oral), vehicle: water 107 % of control | dose: 512.0 mg/kg/injection, schedule: Q01DX001 (sc), vehicle: Klucel (hydroxypropylcellulose) (HPC) 102 % of control | dose: 1000.0 mg/kg/injection, schedule: Q01DX005 (oral), vehicle: saline 108 % of control | dose: 1000.0 mg/kg/injection, schedule: Q04DX003 (oral), vehicle: saline 105 % of control | dose: 1024.0 mg/kg/injection, schedule: Q01DX001 (sc), vehicle: Klucel (hydroxypropylcellulose) (HPC) 100 % of control
